Measurements taken from ChEMBL document CHEMBL1149799, “Bioactive peroxides as potential therapeutic agents” (Eur J Med Chem, 2008).
Converted amounts (≈) assume the structure as drawn.

Columns and labels:
[1] = test system: KB; experiment: Cytotoxicity against human KB cells; assay type: functional, cell-based; details: for EC50 / MIC: Homo sapiens; for EC50: KB, read-out: ED50 (the source's name)
[2] = test system: P388; experiment: Cytotoxicity against mouse P388 cells; assay type: functional, cell-based; details: for EC50 / IC50: Mus musculus, P388; for EC50: read-out: ED50 (the source's name)
[3] = test system: A549; experiment: Cytotoxicity against human A549 cells; assay type: functional, cell-based; details: for EC50 / IC50: Homo sapiens, A549; for EC50: read-out: ED50 (the source's name)
[4] = test system: HT-29; experiment: Cytotoxicity against human HT29 cells; assay type: functional, cell-based; details: for EC50 / IC50: Homo sapiens, HT-29; for EC50: read-out: ED50 (the source's name)
[5] = test system: DU-145; experiment: Cytotoxicity against human DU145 cells; assay type: functional, cell-based; details: Homo sapiens, DU-145
[6] = Cytotoxicity against human MEL28 cells; details: SK-MEL-28
[7] = test system: LoVo; experiment: Cytotoxicity against human LoVo cells; assay type: functional
[8] = test system: L1210; experiment: Cytotoxicity against mouse L1210 cells; assay type: functional, cell-based; details: Mus musculus, L1210
[9] = Cytotoxicity against mouse Ehrlich Ascites carcinoma by trypan blue exclusion assay; assay type: functional

Which EC50 [1] does the source give for `C[C@H](C/C=C/C(C)(C)OO)[C@H]1CC[C@H]2[C@@H]3CC(=O)C4=CC(=O)CC[C@]4(C)[C@H]3CC[C@]12C` here?
The EC50 was 1.15 µg/mL (≈ 2.68 µM).

What about the EC50 [2] of the same compound?
The EC50 was 0.53 µg/mL (≈ 1.24 µM).

And the EC50 [3]?
The EC50 was 0.88 µg/mL (≈ 2.05 µM).

What about the EC50 [4] of the same compound?
Its EC50 is 1.48 µg/mL (≈ 3.45 µM).

With `C=C(C)C(CC[C@@H](C)[C@H]1CC[C@H]2[C@@H]3CC=C4C[C@@H](O)CC[C@]4(C)[C@H]3CC[C@]12C)OO` (some centres not stated) as the compound, how does the EC50 [1] read?
The EC50 was 0.33 µg/mL (≈ 0.792 µM).

And the EC50 [2]?
The EC50 was 0.26 µg/mL (≈ 0.624 µM).

And the EC50 [3]?
The EC50 was 0.64 µg/mL (≈ 1.54 µM).

What about the EC50 [4] of the same compound?
Its EC50 is 0.43 µg/mL (≈ 1.03 µM).

Which IC50 [2] does the source give for `COC(=O)[C@@H](C)[C@@H]1CC[C@](C)(CCC(=O)C(C)(C)CCCC(C)=O)OO1` [DIACARPEROXIDE B] here?
The IC50 was greater than 1 µg/mL.

And the IC50 [3]?
Its IC50 is greater than 1 µg/mL.

And the IC50 [4]?
The IC50 was greater than 1 µg/mL.

With `C=C(CCCC(C)(C)O)C(=O)CC[C@@]1(C)CC[C@@H]([C@H](C)C(=O)OC)OO1` [AIKUPIKOXIDE D] as the compound, how does the IC50 [2] read?
Its IC50 is greater than 1 µg/mL.

What about the IC50 [3] of the same compound?
Its IC50 is greater than 1 µg/mL.

What about the IC50 [4] of the same compound?
Its IC50 is greater than 1 µg/mL.

With `C=CCC/C=C\C=C/CCCCCCCC[C@@H]1CC[C@@H]([C@@H]2CC[C@@H](CC(=O)OC)OO2)O1` as the compound, how does the IC50 [5] read?
Its IC50 is 0.1 µg/mL (≈ 0.223 µM).

What about the IC50 [2] of the same compound?
Its IC50 is 0.05 µg/mL (≈ 0.111 µM).

And the IC50 [6]?
Its IC50 is 0.1 µg/mL (≈ 0.223 µM).

And the IC50 [3]?
Its IC50 is 0.1 µg/mL (≈ 0.223 µM).

What about the IC50 [4] of the same compound?
Its IC50 is 0.1 µg/mL (≈ 0.223 µM).

Which MIC [7] does the source give for `CC(CC/C=C/CC/C=C/c1ccccc1)C[C@@]1(C)C[C@@](C)(CC(=O)O)OO1` (some centres not stated) [EPIPLAKINIC ACID D] here?
Its MIC is 0.1 µg/mL (≈ 0.259 µM).

What about the IC50 [8] of the same compound?
Its IC50 is 0.017 µg/mL (≈ 0.044 µM).

What about the MIC [1] of the same compound?
Its MIC is 0.1 µg/mL (≈ 0.259 µM).

For `C=CCC/C=C\C=C/CCCCCCCC[C@@H]1CC[C@@H]([C@@H]2CC[C@@H](CC(=O)[O-])OO2)O1.[Na+]`, which IC50 [5] is on record?
The IC50 was 0.1 µg/mL.

What about the IC50 [2] of the same compound?
The IC50 was 0.01 µg/mL.

And the IC50 [6]?
Its IC50 is 0.1 µg/mL.

And the IC50 [3]?
The IC50 was 0.1 µg/mL.

And the IC50 [4]?
The IC50 was 0.1 µg/mL.

Which IC50 [9] does the source give for `CC(=O)[C@@H]1CC[C@@H](C)[C@@H]2CC[C@]3(C)OO[C@@]12[C@H](OC=O)O3` here?
Its IC50 is 91 µM.

And the IC80 [9]?
Its IC80 is 156 µM.

Which IC50 [2] does the source give for `C=C1CCCC(C)(C)C1(O)CC[C@@]1(C)CC[C@@H]([C@H](C)C(=O)OC)OO1` (some centres not stated) [AIKUPIKOXIDE B] here?
Its IC50 is greater than 1 µg/mL.

And the IC50 [3]?
The IC50 was greater than 1 µg/mL.

What about the IC50 [4] of the same compound?
The IC50 was greater than 1 µg/mL.

With `C=CCC/C=C\C=C/CCCCCCCC[C@H]1CC[C@H]([C@@H]2CC[C@@H](CC(=O)OC)OO2)O1` as the compound, how does the IC50 [5] read?
Its IC50 is 0.1 µg/mL (≈ 0.223 µM).

And the IC50 [2]?
The IC50 was 0.5 µg/mL (≈ 1.11 µM).

What about the IC50 [6] of the same compound?
The IC50 was 0.5 µg/mL (≈ 1.11 µM).

And the IC50 [3]?
Its IC50 is 0.1 µg/mL (≈ 0.223 µM).

And the IC50 [4]?
Its IC50 is 0.05 µg/mL (≈ 0.111 µM).

For `CC(C)[C@@H](C)C1CC1[C@@H](C)[C@H]1CC[C@@H]2[C@]1(C)CC[C@H]1[C@]23C=C[C@]2(C[C@@H](O)CC[C@]12C)OO3` (some centres not stated), which Activity [1] is on record?
The Activity was 2.1 µg/mL.

And the Activity [2]?
The Activity was 0.4 µg/mL.

And the Activity [3]?
Its Activity is 2.7 µg/mL.

What about the Activity [4] of the same compound?
The Activity was 1.4 µg/mL.

For `C=C(CCC1=C(C)CCCC1(C)C)C(O)CC[C@@]1(C)CC[C@H]([C@H](C)C(=O)O)OO1` (some centres not stated) [TASNEMOXIDE B], which IC50 [2] is on record?
Its IC50 is greater than 1 µg/mL.

And the IC50 [3]?
The IC50 was greater than 1 µg/mL.

What about the IC50 [4] of the same compound?
The IC50 was greater than 1 µg/mL.

For `C=CCCC/C=C/C=C\CCCCCCCC[C@H]1CC[C@H]([C@@H]2CC[C@@H](CC(=O)[O-])OO2)O1.[Na+]` [STOLONOXIDE D], which IC50 [5] is on record?
The IC50 was 0.1 µg/mL.

And the IC50 [2]?
Its IC50 is 0.5 µg/mL.

What about the IC50 [6] of the same compound?
The IC50 was 0.1 µg/mL.

What about the IC50 [3] of the same compound?
The IC50 was 0.1 µg/mL.

And the IC50 [4]?
Its IC50 is 0.05 µg/mL.

Which results are given for `C=CCC/C=C\C=C/CCCCCCCC[C@H]1CC[C@H]([C@@H]2CC[C@@H](CC(=O)[O-])OO2)O1.[Na+]` [stolonoxide C]?
IC50 [5]: 0.1 µg/mL; IC50 [2]: 0.5 µg/mL; IC50 [6]: 0.5 µg/mL; IC50 [3]: 0.1 µg/mL; IC50 [4]: 0.1 µg/mL

For `COc1cccc2c1C(=O)c1c(O)c3c(c(O)c1C2=O)C[C@@](O)(C(=O)CO)C[C@@H]3O[C@H]1C[C@H](N)[C@H](O)[C@H](C)O1` [DOXORUBICIN], which IC50 [3] is on record?
The IC50 was 0.002 µg/mL (≈ 0.00368 µM).

Which results are given for `CC(CCCC/C=C/CC/C=C\c1ccccc1)C[C@]1(C)C[C@@](C)(CC(=O)O)OO1` (some centres not stated) [PLAKINIC ACID C]?
MIC [7]: 0.1 µg/mL (≈ 0.241 µM); IC50 [8]: 0.017 µg/mL (≈ 0.041 µM); MIC [1]: 0.01 µg/mL (≈ 0.0241 µM)

For `C=C1CC[C@H](OO)C(=C)CCC2=C(C(C)C)C(=O)C[C@]2(C)CC1=O`, which EC50 [2] is on record?
The EC50 was 0.052 µg/mL (≈ 0.156 µM).

What about the EC50 [3] of the same compound?
Its EC50 is 0.56 µg/mL (≈ 1.68 µM).

What about the EC50 [4] of the same compound?
Its EC50 is 0.31 µg/mL (≈ 0.932 µM).

For `COC(=O)C[C@]1(C)C[C@@](C)(CC(C)CC/C=C/CC/C=C/c2ccccc2)OO1` (some centres not stated), which MIC [7] is on record?
Its MIC is 0.1 µg/mL (≈ 0.25 µM).

And the IC50 [8]?
The IC50 was 0.0043 µg/mL (≈ 0.0107 µM).

What about the MIC [1] of the same compound?
Its MIC is 1 µg/mL (≈ 2.5 µM).

Which results are given for `C=C(C)C(CC[C@@H](C)[C@H]1CC[C@H]2[C@@H]3C[C@@H](O)C4=CC(=O)CC[C@]4(C)[C@H]3CC[C@]12C)OO` (some centres not stated)?
EC50 [1]: 0.79 µg/mL (≈ 1.83 µM); EC50 [2]: 0.22 µg/mL (≈ 0.511 µM); EC50 [3]: 0.58 µg/mL (≈ 1.35 µM); EC50 [4]: 0.47 µg/mL (≈ 1.09 µM)

Which results are given for `COC(=O)C[C@@]1(C)C[C@@](C)(CC(C)CC/C=C/CC/C=C/c2ccccc2)OO1` (some centres not stated)?
MIC [7]: 0.1 µg/mL (≈ 0.25 µM); IC50 [8]: 0.003 µg/mL (≈ 0.00749 µM); MIC [1]: 0.1 µg/mL (≈ 0.25 µM)

For `COC(=O)C[C@]1(C)C[C@@](C)(CC(C)CCCC/C=C/CC/C=C\c2ccccc2)OO1` (some centres not stated), which MIC [7] is on record?
The MIC was 1 µg/mL (≈ 2.33 µM).

What about the IC50 [8] of the same compound?
The IC50 was 0.013 µg/mL (≈ 0.0303 µM).

What about the MIC [1] of the same compound?
The MIC was 1 µg/mL (≈ 2.33 µM).

With `C=C1C(=O)O[C@H]2[C@H]1[C@H](OC(C)=O)CC(=C)[C@H](OO)CC[C@@]1(C)O[C@H]21` [PEROXYFEROLIDE] as the compound, how does the EC50 [1] read?
The EC50 was 0.29 µg/mL (≈ 0.857 µM).

Which results are given for `C=CC(CC[C@@H](C)[C@H]1CC[C@H]2[C@@H]3C[C@@H](O)C4=CC(=O)CC[C@]4(C)[C@H]3CC[C@]12C)(OO)C(C)C` (some centres not stated)?
EC50 [1]: 1.8 µg/mL (≈ 3.92 µM); EC50 [2]: 0.4 µg/mL (≈ 0.872 µM); EC50 [3]: 0.64 µg/mL (≈ 1.4 µM); EC50 [4]: 0.43 µg/mL (≈ 0.937 µM)

Which IC50 [2] does the source give for `C=C(CCC[C@@]1(C)CC[C@H]([C@H](C)C(=O)OC)OO1)CCC1(O)C(=C)CCCC1(C)C` (some centres not stated) [TASNEMOXIDE C] here?
Its IC50 is greater than 1 µg/mL.

What about the IC50 [3] of the same compound?
Its IC50 is greater than 1 µg/mL.

And the IC50 [4]?
The IC50 was greater than 1 µg/mL.
